# Reference: patent publication EP3050886A1, “Fluorescent dyes and dye precursors” (Bürkert Werke GmbH, priority 2015, dated 2016)
# Entries after “also recorded” stand apart in the source; their conditions may differ.
# Tests used:
# [1] = Absorption spectra / extinction coefficients; format: physicochemical; settings: pro-fluorophores, PBS buffer containing 0.6 % glutaraldehyde at pH 7
# Description: Absorption spectra were recorded in a 1-cm path length cuvette (Hellma, 104.002B-QS) on a SPECORD®-205 spectrometer from Analytik Jena.
# The Extinction coefficients of the flourophores fluorescein, 5-carboxyfluorescein (5-CF), 5-carboxy Oregon Green™ (5-COG), 5-amido N-propyl Oregon Green (5-POG; Example 2) and 5-amido N-propyl fluorescein (5-PFA; Example 3) were measured in 0.1 M NaOH solution at pH 12.7.
# The extinction coefficients of the pro-fluorophores 5-thiourea N-propyl fluorescein diacetate (5-PFDAT; Example 5), 5-propyl carboxylate fluorescein diacetate (5-PFDAE; Example 8), 5-amido N-propyl fluorescein diacetate (5-PFDA; Example 7), 5-carboxy Oregon Green diacetate (5-COGDA; Example 9), 5-amido N-propyl Oregon Green diacetate (5-POGDA; Example 6) and 5-amido N-propyl Oregon Green acetoxymethylester (5-POGAM; Example 10) were measured in PBS buffer containing 0.6 % glutaraldehyde at pH 7.
# E. coli (EC18) = experiment: Immunofluorescence and viability staining of E. coli; format: cell-based, Escherichia coli; settings: 15 µM, 30 min at 37 °C, PBS containing 0.6 % glutaraldehyde
# Description: Environmental E. Coli (EC18) were cultivated and re-suspended in PBS as described above. A dead bacterial suspension was also prepared as previously described. Dead or viable E. coli (EC18) (100 µl of suspension at 1.10^9 bacteria/ml) were incubated with rabbit anti-EC18 polyclonal antibodies (anti-EC18 pAb) (dilution 1/20) for 1 h at room temperature. This anti-EC 18 pAb was obtained from immunized rabbit with inactivated EC18 (Eurogentec). Bacteria were washed in PBS by centrifugation at 10000 rpm for 3 min at room temperature. Then, they were resuspended in 200 µl of PBS solution containing 0.6 % of glutaraldehyde with 15 µM of 5-POGDA and incubated for 30 min at 37 °C in the absence of light. Following several washes with PBS as described above, dead or viable E. coli (EC18) were re-suspended in 200 µl of PBS and incubated for 1 h at room temperature in the absence of light with AlexaFluor 568 labeled anti-rabbit immunoglobulin (dilution 1/1000) (Molecularprobes, A11036). Bacteria were washed twice and re-suspended in 100 µl of PBS. They were imaged with a Leica DM5500 microscope equipped with FITC and Cy3 filters. Images were collected with a 100x objective. The same experiment was repeated three times (n = 3).
# E. coli (ATCC 8739) = experiment: Labeling of viable E. coli, fluorescence intensity by spectrofluorometer; format: cell-based, Escherichia coli; settings: for E. coli staining at 40 µM compared with 5-CFDA or 5-PFDA / concentration range resulting in a saturation process / concentration up to which an increase of viable E. coli fluorescence intensity is obtained: data not shown; for viable E. coli fluorescence intensity relative to 5-CFDA staining: 10 - 15 µM, 30 min at 37 °C, excitation 488 nm, emission 517 nm, Figure 5
# Description: For the staining tests, E. coli (ATCC 8739 or EC18), E. cloacae, C. indologenes, P. aeruginosa and B. subtilis were cultivated in Luria-Bertani (LB) broth until exponential phase at 37°C with shaking at 300 rpm revolutions per minutes (rpm). Bacteria were harvested and washed in sterile phosphate buffer saline solution (PBS) at pH […] by centrifugation at 10000 rpm for 3 min at room temperature (21 ± 2 °C). Then the bacteria were resuspended in PBS at a concentration of 1·10^9 bacteria/ml. Bacteria concentration was calculated according to the turbidity measure at 660 nm (A660nm=1 correspond to bacterial suspension at ∼ 5·10^8 bacteria/ ml).
# Dead bacterial suspensions at 1·10^9 bacteria/ml (negative controls) of these five species of bacteria were prepared individually by addition of 20 µl of bleach containing 2.6 % active chlorine. Bacteria were treated with bleach solution for 15 min. Dead bacteria were washed twice in sterile PBS by centrifugation at 10000 rpm for 3 min at room temperature. The culturability of the negative controls was assessed by plating 100 µl of bacterial suspension onto LB agar or Caso agar and incubating the plates at 37 °C for 72 h.
# […] Bacteria were incubated at 37 °C for 10 - 60 min with pro-fluorophore in darkness. After bacterial staining, they were washed and resuspended in 100 µl of PBS as described above.
# (§1) Staining of the bacterial suspension was observed under a fluorescent microscope. These bacteria were imaged with a Leica DM5500 microscope equipped with FITC filter. […] Images were collected with a 100x objective. Fluorescence intensity of stained bacterial suspension was also measured with FluoroLog®-3 (Horiba Jobin Yvon) spectrofluorometer equipped with sample stirring. Samples were placed in fluorescence grade quartz cuvette having a volume of 1 ml. The excitation wavelength used was 488 nm and emission wavelength used was 517 nm. The same experiment was repeated three times (n = 3).
# Viable or dead E. coli (ATCC 8739) were incubated with different pro-fluorophores (10 - 15 µM) for 30 min at 37 °C. After washes, fluorescence of the E. coli suspension was measured with a FluoroLog®-3 spectrofluorometer (excitation wavelength: 488 nm, emission wavelength: 517 nm). Relative rates of viable E. coli fluorescence intensity were calculated by normalizing the difference of viable E. coli fluorescence intensity and dead E. coli fluorescence intensity with 5-CFDA staining.
# Viable E. coli (ATCC 8739) were incubated with different pro-fluorophores (15 µM) at 37 °C for 10 - 60 min. After washes, E. coli fluorescence suspension was measured with FluoroLog®-3 spectrofluorometer (excitation wavelength: 488 nm, emission wavelength: 517 nm).
# Citobacter freudii = experiment: Bacteria staining test, fluorescence microscopy (data not shown); format: cell-based
# Description: (§2) Bacteria (100 µl suspension at 1·10^9 bacteria/ml) were stained with 10 µM or 15 µM of pro-fluorophore (5-CFDA, 5-PFDAE, 5-PFDAT, 5-PFDA, 5-COGDA, 5-POGDA or 5-POGAM) in 200 µl of PBS solution containing 0.6 % of glutaraldehyde. Bacteria were incubated at 37 °C for 10 - 60 min with pro-fluorophore in darkness. After bacterial staining, they were washed and resuspended in 100 µl of PBS as described above.
# as §1
# (§3) No fluorescence signal was detected by microscopy analysis with the dead bacteria.
# Klebsiella oxytoca = experiment: as above; format: cell-based
# Description: as §2, §1, §3
# [2] = tested on: Comamonas testosteroni/alcaligenes; experiment: as above; format: cell-based
# Description: as §2, §1, §3
SMILES,E (extinction coefficient) [1] [M⁻¹ cm⁻¹],λAbs max [1] [nm],green fluorescence of viable and dead E. coli (EC18) coated with antibodies (E. coli (EC18)),E. coli staining at 40 µM compared with 5-CFDA or 5-PFDA (E. coli (ATCC 8739)),viable E. coli fluorescence intensity relative to 5-CFDA staining (E. coli (ATCC 8739)),concentration range resulting in a saturation process (E. coli (ATCC 8739)) [µM],concentration up to which an increase of viable E. coli fluorescence intensity is obtained (E. coli (ATCC 8739)),staining of viable versus dead bacteria (Citobacter freudii),staining of viable versus dead bacteria (Klebsiella oxytoca),staining of viable versus dead bacteria [2]
"CCCNC(=O)c1ccc2c(c1)C(=O)OC21c2cc(F)c(OC(C)=O)cc2Oc2cc(OC(C)=O)c(F)cc21 [Example 5-POGDA, 2',7'-difluoro-3-oxo-5-(propylcarbamoyl)-3H-spiro[isobenzofuran-1,9'-xanthene]-3',6'-diyl diacetate]",9784 ± 351,303,bright green fluorescence; also recorded: viable cells have a green fluorescence and dead cells have no green fluorescence,stronger E. coli staining than 5-CFDA or 5-PFDA,approximately 6,20 to 40,about 15 µM,The same results were obtained,The same results were obtained,The same results were obtained
"CCCNC(=O)c1ccc2c(c1)C(=O)OC21c2cc(F)c(OCOC(C)=O)cc2Oc2cc(OCOC(C)=O)c(F)cc21 [Example 5-POGAM, 2',7'-difluoro-3-oxo-5-(propylcarbamoyl)-3H-spiroisobenzofuran-1,9'-xanthene-3',6'-diyl diacetoxymethyl ether]",11165 ± 334,302,–,stronger E. coli staining than 5-CFDA or 5-PFDA,between two and three times higher; also recorded: three times brighter,20 to 40,about 15 µM,The same results were obtained,The same results were obtained,The same results were obtained
